Experimental data published in patent US11976334B2, “Inhibitor of ATR kinase for use in a method of treating a hyper-proliferative disease” (Bayer Aktiengesellschaft, priority 2017, dated 2024).

Tests used:
AsPc-1 = assay: Tumor cell proliferation, AsPc-1 (crystal violet); format: cell-based; conditions: Homo sapiens, ASPC1, 96 h; AsPc-1, Pancreas; 4 days; read-out: in vitro (IC50, nM), inhibition of tumor cell proliferation
Excerpt: (§1) All measurements were done in quadruplicates.

SK-OV-3 = assay: Tumor cell proliferation, SK-OV-3 (crystal violet); format: cell-based; conditions: Homo sapiens, 96 h; SK-OV-3, Ovarian; 4 days; read-out: in vitro (IC50, nM), inhibition of tumor cell proliferation
Excerpt: as §1

HT-144 = assay: Tumor cell proliferation, HT-144 (crystal violet); format: cell-based; conditions: Homo sapiens, 96 h; HT-144, Melanoma; 4 days; read-out: in vitro (IC50, nM), inhibition of tumor cell proliferation
Excerpt: as §1

REC-1 = assay: Tumor cell proliferation, REC-1 (Cell Titer Glo); format: cell-based; conditions: Homo sapiens, Rec1, 96 h; REC-1, Lymphoma, mantle cell; 4 days; read-out: in vitro (IC50, nM), inhibition of tumor cell proliferation
Procedure: (§2) Non-adherent growing GRANTA-519, Jeko-1, JVM-2, NCI-H929, Rec-1 and SU-DHL-8 cells were seeded in 150 μl of growth medium at 4000 cells/well (NCI-H929, 5000 cells/well) in 96-well microtiter plates and incubated for 24 h at 37° C. […] All measurements were done in quadruplicates.

HCC70 = assay: Tumor cell proliferation, HCC70 (crystal violet); format: cell-based; conditions: Homo sapiens, 96 h; HCC70, Breast; 4 days; read-out: in vitro (IC50, nM), inhibition of tumor cell proliferation
Excerpt: as §1

A549 = assay: Tumor cell proliferation, A549 (crystal violet); format: cell-based; conditions: Homo sapiens, 96 h; A549, Lung; 4 days; read-out: in vitro (IC50, nM), inhibition of tumor cell proliferation
Excerpt: as §1

DLD-1 BRCA2 (−/−) = assay: Isogenic tumor cell line proliferation, DLD-1 BRCA2 (−/−); format: cell-based; conditions: Homo sapiens, 168 h, BRCA2 deficiency, 7 days, CTG, read-out: in vitro (IC50, nM), inhibition of isogenic tumor cell line proliferation
Procedure: (§3) The isogenic DLD-1 cell lines DLD-1 parental, DLD-1 BRCA2 (−/−) and DLD-1 ATM (−/−) (see Table 3: Test systems) were seeded in RPMI 1640 (RPMI=Roswell Park Memorial Institute) medium without phenol red+10% charcoal-stripped FCS (FCS=Fetal Calf Serum)+2 mM L-Glutamine+25 mM Sodium Bicarbonate at 2,500 cells/well in a 96-well microtiter plate. […] All measurements were done in quadruplicates.

JVM-2 = assay: Tumor cell proliferation, JVM-2 (Cell Titer Glo); format: cell-based; conditions: Homo sapiens, 96 h; JVM-2, Lymphoma, mantle cell; 4 days; read-out: in vitro (IC50, nM), inhibition of tumor cell proliferation
Procedure: as §2

[1] = tested on: A2780 xenograft (ovarian); conditions: mouse, in vivo, po, 50 mg/kg
Procedure: (§4) For this purpose, mice were implanted subcutaneously with tumor cells. […] The oral application volume was 10 ml/kg. The time interval between two applications per day was 6-7 h. […] The tumor size and the body weight were determined three times weekly. Changes in the body weight were a measure of treatment-related toxicity (>10%=critical, stop of treatment until recovery, >20%=toxic, termination). The tumor area was detected by means of an electronic caliper gauge [length (mm)×width (mm)]. In vivo anti-tumor efficacy is presented as T/C ratio (Treatment/Control) calculated with tumor areas at study end by the formula [(tumor area of treatment group at day x)−(tumor area of treatment group at day before first treatment)]/[(tumor area of control group at day x)−(tumor area of control group at day before first treatment)]. […] Statistical analysis was assessed using SigmaStat software. A one-way analysis of variance was performed and differences to the control were compared by a pair-wise comparison procedure (Dunn's method).

[2] = tested on: LOVO xenograft (colorectal cancer); conditions: mouse, in vivo, po, 50 mg/kg
Procedure: as §4

PC3 xenograft (prostate) = conditions: mouse, in vivo, po, 50 mg/kg
Procedure: as §4

[3] = tested on: REC-1 xenograft (mantle cell lymphoma); conditions: mouse, in vivo, po, 50 mg/kg
Procedure: as §4

[4] = tested on: LAPC-4 human prostate cancer cells; assay: Proliferation of LAPC-4 cells (Alamar Blue); format: cell-based; conditions: 168 h, LapC4, Prostate, R1881 1 nM, day 7, read-out: in vitro (IC50, nM), inhibition of tumor cell proliferation
Procedure: LAPC-4 human prostate cancer cells were obtained from the VTT Technical Resarch Center (Finland). They were plated in RPMI 1640 (RPMI=Roswell Park Memorial Institute) medium without phenol red+10% charcoal-stripped FCS (FCS=Fetal Calf Serum)+2 mM L-Glutamine at 4000 cells/well in a 96-well microtiter plate. […] Cell number was determined by Alamar Blue staining (2 h) at day 7. Fluorescence was determined in a Victor X3 device (excitation 530 nm; emission 590 nm). The inhibition of cell growth was calculated by normalization with respect to the fluorescence reading (cell number) measured at the end of the experiment for cells treated with R1881 alone compared to the fluorescence reading (cell number) measured at the end of the experiment for DMSO-treated cells.

TMD-8 = assay: Tumor cell proliferation, TMD-8; format: cell-based; conditions: Homo sapiens, TMD8, 96 h; TMD-8, Lymphoma, B cell; 4 days; read-out: in vitro (IC50, nM), inhibition of tumor cell proliferation
Excerpt: as §1

GRANTA-519 = assay: Tumor cell proliferation, GRANTA-519 (Cell Titer Glo); format: cell-based; conditions: Homo sapiens, 96 h; GRANTA-519, Lymphoma, mantle cell; 4 days; read-out: in vitro (IC50, nM), inhibition of tumor cell proliferation
Procedure: as §2

[5] = tested on: LNCaP human prostate cancer cells; assay: Proliferation of LNCaP cells (CellTiter-Glow); format: cell-based; conditions: 144 h, R1881 1 nM, day 6, read-out: in vitro (IC50, nM), inhibition of tumor cell proliferation
Procedure: They were plated in RPMI1640 medium without phenol red+10% charcoal-stripped FCS at 600 cells/well in a 384-well white plate. […] Cell number was determined by CellTiter-Glow (Promega) at day 0 and day 6. Luminescence was determined in Victor X3. The inhibition of cell growth was calculated by normalization with respect to the fluorescence reading (cell number) measured at the end of the experiment for cells treated with R1881 alone compared to the fluorescence reading (cell number) measured at the start of the experiment for DMSO-treated cells.

[6] = tested on: 22RV1 human prostate cancer cells; assay: Proliferation of 22Rv1 cells (crystal violet); format: cell-based; conditions: 96 h, 22Rv1, Prostate, 4 days, read-out: in vitro (IC50, nM), inhibition of tumor cell proliferation
Procedure: (§5) 22RV1 human prostate cancer cells were obtained from the American Type Culture Collection (ATCC CRL-2505). They were plated in RPMI1640 medium supplemented with 10% FCS at 5000 cells/well in a 96-well microtiter plate. After 24 h, the cells from one microtiter plate were stained with crystal violet (==>0 plate), whereas the cells in the test plates were exposed continuously for 4 days to test substances. Cell proliferation was determined by staining with crystal violet. The absorbance was determined photometrically at 595 nm using a Tecan Sunrise instrument.

DLD-1 parental = assay: Isogenic tumor cell line proliferation, DLD-1 parental; format: cell-based; conditions: Homo sapiens, 168 h, Colorectal, 7 days, CTG, read-out: in vitro (IC50, nM), inhibition of isogenic tumor cell line proliferation
Procedure: as §3

NCI-H2030 = assay: Tumor cell proliferation, NCI-H2030 (crystal violet); format: cell-based; conditions: Homo sapiens, 96 h; NCI-H2030, Lung; 4 days; read-out: in vitro (IC50, nM), inhibition of tumor cell proliferation
Excerpt: as §1

BxPC3 = assay: Tumor cell proliferation, BxPC3 (crystal violet); format: cell-based; conditions: Homo sapiens, BXPC-3, 96 h; BxPC3, Pancreas; 4 days; read-out: in vitro (IC50, nM), inhibition of tumor cell proliferation
Excerpt: as §1

Jeko-1 = assay: Tumor cell proliferation, Jeko-1 (Cell Titer Glo); format: cell-based; conditions: Homo sapiens, 96 h; Jeko-1, Lymphoma, mantle cell; 4 days; read-out: in vitro (IC50, nM), inhibition of tumor cell proliferation
Procedure: as §2

HT29 = assay: Tumor cell proliferation, HT29 (crystal violet); format: cell-based; conditions: Homo sapiens, HT-29, 96 h; HT29, Colorectal; 4 days; read-out: in vitro (IC50, nM), inhibition of tumor cell proliferation
Excerpt: as §1

[7] = tested on: VCaP human prostate cancer cells; assay: Proliferation of VCaP cells (Alamar Blue); format: cell-based; conditions: 168 h, day 7, read-out: in vitro (IC50, nM), inhibition of tumor cell proliferation
Procedure: VCaP human prostate cancer cells were obtained from the VTT Technical Research Center (Finland). They were plated in DMEM medium (DMEM=Dulbecco's Modified Eagle Medium) with stable glutamine+10% FCS at 16000 cells/well in a 96-well microtiter plate. […] Cell number was determined by Alamar Blue staining (2 h) at day 0 and day 7. Fluorescence was determined in a Victor X3 device (excitation 530 nm; emission 590 nm). The inhibition of cell growth was calculated by normalization with respect to the fluorescence reading (cell number) measured at the end of the experiment for cells treated with R1881 alone compared to the fluorescence reading (cell number) measured at the start of the experiment for DMSO-treated cells.

SU-DHL-8 = assay: Tumor cell proliferation, SU-DHL-8 (Cell Titer Glo); format: cell-based; conditions: Homo sapiens, 96 h; SU-DHL-8, Lymphoma, B cell; 4 days; read-out: in vitro (IC50, nM), inhibition of tumor cell proliferation
Procedure: as §2

[8] = tested on: PC-3 human prostate cancer cells; assay: Proliferation of PC-3 cells (crystal violet); format: cell-based; conditions: PC-3, 96 h, PC3, Prostate, 4 days, read-out: in vitro (IC50, nM), inhibition of tumor cell proliferation
Procedure: as §5, with “PC-3” for “22RV1”, “DSMZ-German” for “American Type Culture”, “of Microorganisms and Cell Cultures (Germany) (DSMZ ACC-465).” for “(ATCC CRL-2505).”, “DMEM/Ham's F12” for “RPMI1640”, “medium” for “medium supplemented”, “stable Glutamine+10%” for “10%”

NCI-H23 = assay: Tumor cell proliferation, NCI-H23 (crystal violet); format: cell-based; conditions: Homo sapiens, 96 h; NCI-H23, Lung; 4 days; read-out: in vitro (IC50, nM), inhibition of tumor cell proliferation
Excerpt: as §1

U-87MG = assay: Tumor cell proliferation, U-87MG (crystal violet); format: cell-based; conditions: Homo sapiens, 96 h, Glioblastoma, 4 days, read-out: in vitro (IC50, nM), inhibition of tumor cell proliferation
Excerpt: as §1

C4-2B = assay: Tumor cell proliferation, C4-2B (crystal violet); format: cell-based; conditions: Homo sapiens, 96 h, Prostate, 4 days, read-out: in vitro (IC50, nM), inhibition of tumor cell proliferation
Excerpt: as §1

MIAPaCa2 = assay: Tumor cell proliferation, MIAPaCa2 (crystal violet); format: cell-based; conditions: Homo sapiens, MIA PaCa-2, 96 h; MIAPaCa2, Pancreas; 4 days; read-out: in vitro (IC50, nM), inhibition of tumor cell proliferation
Excerpt: as §1

M059J = assay: Tumor cell proliferation, M059J (crystal violet); format: cell-based; conditions: Homo sapiens, 96 h, Glioblastoma, 4 days, read-out: in vitro (IC50, nM), inhibition of tumor cell proliferation
Excerpt: as §1

C[C@@H]1COCCN1c1cc(-c2ccnn2C)c2ccnc(-c3ccn[nH]3)c2n1 [Compound A, 2-[(3R)-3-methylmorpholin-4-yl]-4-(1-methyl-1H-pyrazol-5-yl)-8-(1H-pyrazol-5-yl)-1,7-naphthyridine]
IC50 (AsPc-1): 49 nM | IC50 (SK-OV-3): 33 nM | IC50 (HT-144): 40 nM | IC50 (REC-1): 10 nM | IC50 (HCC70): 27 nM | IC50 (A549): 29 nM | IC50 (DLD-1 BRCA2 (−/−)): 27 nM | IC50 (JVM-2): 32 nM | Max. weight loss (%) [1]: −6% | Max. weight loss (%) [2]: −8% | Max. weight loss (%) (PC3 xenograft (prostate)): −7% | Max. weight loss (%) [3]: −10% | IC50 [4]: 55 nM | IC50 (TMD-8): 179 nM | IC50 (GRANTA-519): 30 nM | IC50 [5]: 18 nM | IC50 [6]: 36 nM | IC50 (DLD-1 parental): 50 nM | IC50 (NCI-H2030): 160 nM | IC50 (BxPC3): 44 nM | IC50 (Jeko-1): 18 nM | IC50 (HT29): 160 nM | IC50 [7]: 51 nM | IC50 (SU-DHL-8): 9 nM | IC50 [8]: 490 nM | IC50 (NCI-H23): 18 nM | IC50 (U-87MG): 64 nM | IC50 (C4-2B): 50 nM | IC50 (MIAPaCa2): 380 nM | IC50 (M059J): 80 nM
